Reference: patent publication US7276494B2, “Photosensitisers” (Photopharmica Limited, priority 2000, dated 2007)

How the values were obtained:
LSBD1 tumour = test: PDT-induced LSBD1 tumour growth delay in BDIX rats; type: in vivo; conditions: 400 J
Procedure: Data are shown in two animals models, the rat and the mouse. […] Growth delay measures the additional time taken for a treated tumour to grow to a given size, compared with an untreated tumour. Zero growth delay signifies no effect and growth delays of 5 days or longer imply substantial PDT activity.
(1) PDT-Induced LSBD1 Tumour Growth Delay in BDIX Rats
Tumour growth delay is calculated as the number of days for treated tumour to reach a mean diameter of 15 mm minus the number of days for a control tumour to reach a mean diameter of 15 mm. Data for various compounds are shown in Table 2, which also indicates the times (drug-light interval) at which effects occurred.

[1] = test system: RIF-1 (murine fibrosarcoma) cells; test: Phototoxicity towards cells in culture (photocytotoxic activity in killing RIF-1 cells); type: cell-based; conditions: concentration causing 50% cell death in two hours of illumination
From the text: [Phot]=Zinc Phthalocyanine; n=4; LD50 is the concentration of drug needed to cause 50% cell death in two hours of illumination

red blood cells = conditions: J. Photochem. Photobiol B: Biology., 45 (1998) 28-35; cited from earlier work
RIF-1 tumour cells = test: In vitro photodynamic activity, RIF-1 tumour cells, cell kill by MTT assay after 665 nm laser radiation; type: cell-based, murine; conditions: for Light: LD50 (average) / Dark: cell kill: RIF-1 tumour cells, MTT assay; for Light: LD50 (average): 665 nm laser radiation for a fixed time; for Dark: cell kill: no light
Procedure: In vitro photodynamic activity for zinc phthalocyanine-2-(N-2-carboxyethyl)sulphonamide compared with Zinc phthalocyanine tetrasulphonic acid. The sensitiser was tested by incubation with RIF-1 tumour cells at various dose rates, and measuring the cell kill by MTT assay after exposure to 665 nm laser radiation for a fixed time. The results were compared with zinc phthalocyanine tetrasulphonic acid as a control, and were expressed as the LD50 value for the sensitisers.

[2] = drug-light interval 24 h, 5 mg/kg, 680 nm
[3] = drug-light interval 48 h, 5 mg/kg, 680 nm
[4] = drug-light interval 4 h, 10 mg/kg, 680 nm phthalocyanines / 630 nm PHP
[5] = drug-light interval 24 h, 10 mg/kg, 680 nm phthalocyanines / 630 nm PHP
[6] = drug-light interval 48 h, 10 mg/kg, 680 nm phthalocyanines / 630 nm PHP

Substance “Tetrasulphonylaminoglycine zinc (II) phthalocyanine [TSZnPc-glycine]” has a Tumour growth delay (LSBD1 tumour; drug-light interval 4 h, 5 mg/kg, 680 nm) of 8.5 ± 3.5 days, a Tumour growth delay (LSBD1 tumour; [2]) of 4.7 ± 0.75 days and a Tumour growth delay (LSBD1 tumour; [3]) of 4.5 days. For the same substance, the “2h LD50 (mean ± SD, n 3)” value [1] was 142 ± 37 µM and the “ability to effect haemolysis of red blood cells” value (red blood cells) was “relatively poor”.
Substance “tetrasulphonylamino β-alanine zinc (II) phthalocyanine [TSZnPc-β-alanine]” has a Tumour growth delay (LSBD1 tumour; drug-light interval 2 h, 10 mg/kg, 680 nm) of 6 ± 0.62 days, a Tumour growth delay (LSBD1 tumour; [4]) of 10 ± 2.62 days and a Tumour growth delay (LSBD1 tumour; drug-light interval 6 h, 10 mg/kg, 680 nm) of 5.25 ± 1.59 days. For the same substance, the Tumour growth delay (LSBD1 tumour; [2]) was 2 days, the Tumour growth delay (LSBD1 tumour; [3]) was 2 days and the “2h LD50 (mean ± SD, n 3)” value [1] was 109 ± 31 µM.
Work on “tetrasulphonylamino-α-alanine zinc (II) phthalocyanine [TSZnPc-α-alanine]” yielded a Tumour growth delay (LSBD1 tumour; [4]) of 4.33 ± 0.83 days, a Tumour growth delay (LSBD1 tumour; [5]) of 6.67 ± 1.09 days and a Tumour growth delay (LSBD1 tumour; [6]) of 3.33 ± 0.73 days. The “2h LD50 (mean ± SD, n 3)” value [1] was 109 ± 39 µM.
For “tetrasulphonylamino valeric acid zinc (II) phthalocyanine [TSZnPc-aminovaleric acid]”, the “2h LD50 (mean ± SD, n 3)” value [1] was 125 ± 13 µM.
In the case of “zinc phthalocyanine-2-(N-2-carboxyethyl)sulphonamide”, the “Light: LD50 (average)” value (RIF-1 tumour cells) is reported as 0.2 µM, the “Dark: cell kill” value (RIF-1 tumour cells) is reported as “no cell kill detectable” and the “times more PDT active than the tetrasulphonic acid (in vitro)” value (RIF-1 tumour cells; ratio of light LD50 values, RIF-1 cells) is reported as “at least 50 times”.
In the case of “zinc phthalocyanine tetrasulphonic acid [reference compound]”, the “Light: LD50 (average)” value (RIF-1 tumour cells) is reported as greater than 10 µM and the “Dark: cell kill” value (RIF-1 tumour cells) is reported as “no cell kill detectable”.
In the case of “tetrasulphonylamino caproic acid zinc (II) phthalocyanine [TSZnPc-aminocaproic acid]”, the “2h LD50 (mean ± SD, n 3)” value [1] is reported as 104 ± 14 µM.
Work on “tetrasulphonylamino butyric acid zinc (II) phthalocyanine [TSZnPc-aminobutyric acid]” yielded a Tumour growth delay (LSBD1 tumour; [4]) of 4.3 ± 1.44 days, a Tumour growth delay (LSBD1 tumour; [5]) of 7.83 ± 3.33 days and a Tumour growth delay (LSBD1 tumour; [6]) of 1.67 ± 1.53 days. For the same substance, the “2h LD50 (mean ± SD, n 3)” value [1] was 90 ± 30 µM.
